From patent US4822791A, “Pharmaceutical compositions of-2,2-1,1-[bis-2,2'-(3,1-benzoxazin-4-one)9 ethylenes” (priority 1984, dated 1989)
Values joined by “and” are separate entries in the source; they are usually repeats but may differ in a detail not shown here. Equal values may be shown once.

How the values were obtained:
[1] = Acute toxicity LD50 in rats (Test Example 8); details: rat, in vivo, po; one week; Probit method; read-out: LD50 value (mg/kg body weight) Rat p.o.
Experimental: (§1) ddy-Strain mice (male) and Wistar strain rats were used to obtain LD50 values.
(§2) According to the ordinary procedure, suspension or solution of test sample was administered to the animals. From the number of the died animals until one week after the administration, LD50 values were obtained by Probit method.

hyaluronidase [2] = molecular target: T1, hyaluronidase (Bos taurus, UniProt Q2YDK3); test: Anti-hyaluronidase activity (modified Morgan-Elson method); format: biochemical; details: hyaluronidase 340NF unit/ml; activating agent Compound 48/80 or CaCl2; read-out: IC50
T1 sequence (Q2YDK3 36-553): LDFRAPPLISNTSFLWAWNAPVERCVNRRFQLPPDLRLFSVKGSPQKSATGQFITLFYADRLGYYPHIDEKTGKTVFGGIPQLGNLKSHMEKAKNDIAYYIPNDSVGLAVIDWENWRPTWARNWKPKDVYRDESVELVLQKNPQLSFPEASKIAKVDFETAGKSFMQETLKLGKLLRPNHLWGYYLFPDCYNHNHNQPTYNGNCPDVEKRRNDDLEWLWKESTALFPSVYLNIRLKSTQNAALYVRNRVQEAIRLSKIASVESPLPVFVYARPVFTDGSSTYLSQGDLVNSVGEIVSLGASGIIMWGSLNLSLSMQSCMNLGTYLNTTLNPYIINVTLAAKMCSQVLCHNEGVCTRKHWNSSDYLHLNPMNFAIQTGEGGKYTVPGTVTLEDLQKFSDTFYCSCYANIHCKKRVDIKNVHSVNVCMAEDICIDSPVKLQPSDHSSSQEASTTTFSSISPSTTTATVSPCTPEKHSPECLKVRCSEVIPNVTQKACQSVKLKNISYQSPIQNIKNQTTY
Experimental: A buffer soluticn of hyaluronidase (0.1 ml) was taken in a test tube and 0.2 ml each of the buffer solution of various compounds in various concentrations was added, and the mixture was preincubated at 37° C. for 20 minutes. Then, an activating agent (Compound 48/80 or CaCl2) (0.2 ml) was added to make the total amount 0.5 ml, which was incubated at 37° C. for 20 minutes. Then, potassium hyaluronate buffer solution (0.5 ml) was added, and the mixture was incubated at 37° C. for 40 minutes. After cooling, the mixture was treated with aqueous solution of 0.4N NaOH (0.2 ml) and neutralized to stop the reaction. The resulting product was subjecred to measurement of OD585 by the modified Morgan-Elson Method. […] (The final ccncentration of hyaluronidase was 340NF unit/ml.) [formula]

[3] = Acute toxicity LD50 in mice (Test Example 8); details: mouse, in vivo, one week, Probit method
Experimental: as §1, §2

[4] = system: experimental ulcer model (Shay); test: Anti-ulcer activity in experimental ulcer model (Shay); format: in vivo, Wistar strain male rats
Experimental: Using 5 eight-week old Wistar strain male rats of 1 group, the rats were previously fasted for […]. The compound of an amount proportionate to the body weight based on the body weight after fasting was administered intraduodenally or intraperitoneally.
Each test compound was evenly suspended or dissolved in an aqueous solution of 0.5% CMC ccntaining 0.1% Tween 80, and administered at the rate of 0.5 ml per 100 g of body weight of the animal. To the controls, only the solvent was administered.
Test was carried out in accordance with Shay's method. After 48 hours' fasting, 5 animals per group were subjected to laparotomy under ether anesthesia, the tract between pylorus of stomach and duodenum was ligated, and the solution of the compound was administered intraduodenally (id) or intraperitoneally (ip), followed by suturing the laparotomy part. Eight hours after administration of the compound liquid, each animal was sacrificed by ether anesthesia and stomach was removed. Then, evaluation on the ulcer condition on the inner surface of stomach, and determination of the amount of gastric juice, of acidity by alkali titration, and of pepsin titer based on substrate of hemoglovin were made on the stored gastric juice. With regard to the acidity, gastric juice amount, and pepsin titer, the results were shown in inhibition rate (%) based on the average value of the control groups.

[5] = system: mast cell in abdominal cavity; test: Release of histamine by antigen DNP-Ascaris, mast cell in abdominal cavity (Test Example 12); format: cell-based, rat; details: Rattus norvegicus, Mast cell; 10^-3 M; read-out: Effect on release of histamine by antigen DNP-Ascaris, Mast cell in abdominal cavity (control 100)
Experimental: (§3) Collection of mast cells in abdominal cavity and thoracic cavity and sensitizing of cells were conducted in similar manners to those in Test Example 10, respectively.
(§4) (1) Preparation of DNP-Ascaris antiserum was conducted in manner similar to that in Test Example 6.
(§5) This is conducted in amanner similar to that in Test Example 10.
(§6) This is conducted in a manner similar to that in Test Example 10.

[6] = system: Mast cell in thoracic cavity; test: Release of histamine by antigen DNP-Ascaris, mast cell in thoracic cavity (Test Example 12); format: cell-based; details: Rattus norvegicus, 10^-3 M, read-out: Effect on release of histamine by antigen DNP-Ascaris, Mast cell in thoracic cavity (control 100)
Experimental: as §3, §4, §5, §6

[7] = system: mast cell in abdominal cavity; test: Histamine release by antigen DNP-Ascaris, mast cell in abdominal cavity (Test Example 10); format: cell-based, rat; details: Rattus norvegicus, Mast cell, 20 min; 10^-3 M; read-out: released amount of histamin, Mast cell in abdominal cavity (control shown as 100)
Experimental: (§7) Examination was made cn the activity of inhibition of histamine release from mast cell by antigen-antibody reaction.
(§8) Preparation of DNP-Ascaris antiserum was conducted in a manner similar to that in Test Example 6.
(§9) Heparin-containing PBS was injected into the abdominal cavity of rat which was sacrificed by bleeding, after which the abdomen was well massaged, and then peritoneal exudate was sampled. The same liquid was also injected into the thoracic cavity, and after shaking the breast for several minutes, the thoracic cavity liquid was sampled, which was purified by washing several times by centrifugation. The number of the mast cells contained in this liquid was measured and adjusted to a designated concentration. (Mast cells, 8.0×10^4 cells/ml).
(§10) To the cell suspension (4 ml, 9×10^5 cells/ml), anti-DNP-Ascaris rat serum (PCA titer, 32) (4 ml) was added, and the mixture was incubated in the presence of heparin at 37° C. for 2.5 hours. To the solution, 70 microgramms/ml phosphatidylserin PBS solution (0.5 ml) was added and the mixture was incubated at 37° C. for 12 minutes, after which 140 microgramms/ml antigen DNP-Ascaris PBS solution (0.5 ml) was added and the mixture was incubated further for 20 minutes.
After completion of the reaction, the reaction liquid was centrifuged (500 G, 10 min.) to obtain supernatant solution, and histamin in the supernatant solution was subjected to fluorometry by orthophthalal aldehyde method. The released amount of histamin in the control was shown as 100.

[8] = system: passive cutaneous anaphylaxis (PCA); test: Anti-passive cutaneous anaphylaxis activity (PCA) in rats (Test Example 9); format: in vivo; details: Rattus norvegicus, po, 100 mg/kg, 10 animals
Experimental: Wistar strain rats were sensitized with ovalbumin using aluminium hydroxide gel and Bordetella Pertussis vaccine as adjuvants. Dilutions of antiserum (16-fold and 32-fold) obtained by collecting blood samples 14 days later were administered subcutaneously in the dorsal skin of the rats of the same strain at the rate of 0.1 ml per spot, and the rats were grown for 48 hours. One hour after peroral administration of the sample solution, a mixture of antigen ovalbumin and Evans-blue dye was administered to the tail venous of the animal according to the ordinary procedure. Thirty minutes later, the animals were sacrificed by exsanguination, and the areas of blue spots (long diameter×short diameter) eliciting on the portion of the antiserum injection at the dorsal skin were measured to obtain the rate of inhibition based on the average value shown by the control animals.
This test was conducted in a manner similar to that in Test Example 2, except that the dilutions of antiserum were 12- and 24-folds.

[9] = system: anaphylaxis reaction to inhalated antigen; test: Antigen inhalation test on passive sensitized guinea pig (experimental asthma model); format: in vivo; details: 5 mg/kg iv
Experimental: The test compound and Tranilast were respectively suspended at the time of use in 5% gum arabic solution containing 0.1% Tween 80 at the rate of 40 mg/ml, and were perorally administered at the rate of 0.5 ml per 100 g body weight of the animal.
DSCG was dissolved at the time of use in physiological saline solultion for injection at the rate of 5.0 mg/ml, and was intravenously injected at the rate of 0.1 ml per 100 g body weight of the animal.
Anti-ovalbumin rabbit serum diluted with physiological saline solution for injection so as tc contain anti-ovalbumin rabbit antibody at the rate of 0.187 mg N/ml was intravenously administered to guinea pig at the rate of 0.1 ml per 100 g of body weight and it was passively sensitized.
Twenty-four hours later, the suspension of the compound prepared in (1) above was perorally or intravenously administered to the animal. The animal was put in the inhalation chamber one hour after the administration in case of the peroral administration and five minutes after the administration in case of the intravenous administration, and 2% physiological saline solution of antigen ovalbumin was inhaled by spraying. Over 10 minutes' period from the time immediately after the forced inhalation, the time until its fall attributed to anaphylaxis reaction was recorded, and the numbers of alive and dead animals after lapse of 10 minutes were also counted.

[10] = system: Mast cell in thoracic cavity; test: Histamine release by antigen DNP-Ascaris, mast cell in thoracic cavity (Test Example 10); format: cell-based; details: Rattus norvegicus, 20 min, 10^-3 M, read-out: released amount of histamin, Mast cell in thoracic cavity (control shown as 100)
Experimental: as §7, §8, §9
as §10, with “minutes. […]” for “minutes.”

[11] = system: mast cell in abdominal cavity; test: Release of histamine by dextran (T-500), mast cell in abdominal cavity (Test Example 12); format: cell-based, rat; details: Rattus norvegicus, Mast cell, 0.25 h, read-out: Effect on release of histamine by dextran (T-500), Mast cell in abdominal cavity (control 100)
Experimental: as §3
(§11) The sample solution was treated with 105 microgramms/ml phosphatidylserin PBS solution (0.5 ml) and incubated at 37° C. for 30 minutes, followed by addition of 25 mg/ml dextran (T-500) PBS solution (0.5 ml) and further incubation for 15 minutes.
as §6

[12] = system: Mast cell in thoracic cavity; test: Release of histamine by dextran (T-500), mast cell in thoracic cavity (Test Example 12); format: cell-based, rat; details: Rattus norvegicus, Mast cell, 0.25 h; 10^-3 M; read-out: Effect on release of histamine by dextran (T-500), Mast cell in thoracic cavity (control 100)
Experimental: as §3, §11, §6

hyaluronidase [13] = details: known from the literature; cited from earlier work
[14] = system: passive cutaneous anaphylaxis (PCA); test: Anti-passive cutaneous anaphylaxis (PCA) activity in rats (Test Example 2); format: in vivo, Wistar strain rats; details: for inhibition in vivo at 100 mg/kg: Rattus norvegicus, 100 mg/kg PO, N 10
Method in brief: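 Antiserum from Wistar rats sensitized with ovalbumin (alum plus B. pertussis adjuvant) was diluted 16- or 32-fold and injected into dorsal skin of naive rats, which were held 48 h. Compound was given orally 1 h before i.v. ovalbumin plus Evans blue.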

COc1ccc(C=C(C(=O)Nc2ccccc2C(=O)O)C(=O)Nc2ccccc2C(=O)O)cc1OC [Compound 20, 2,2'-[[2-(3,4-dimethoxy)phenylmethylene-1,3-dioxo-1,3-propanediyl]diimino]bisbenzoic acid]
LD50 at 168 h [1]: > 10000 mg/kg | IC50 (hyaluronidase [2]): 40 µM | LD50 at 168 h ([3]; iv, read-out: LD50 value (mg/kg body weight) Mouse i.v.): 225 mg/kg | LD50 at 168 h ([3]; po, read-out: LD50 value (mg/kg body weight) Mouse p.o.): > 10000 mg/kg | Inhibition % Gastric Acidity ([4]; id 100 mg/kg): 64.5% | Inhibition % secretion amount of gastric juice ([4]; id 100 mg/kg): 28.1% | Inhibition % total pepsin titer ([4]; id 100 mg/kg): 42.5% | Inhibition % Gastric Acidity ([4]; id 200 mg/kg): 99.5% | Inhibition % secretion amount of gastric juice ([4]; id 200 mg/kg): 59.0% | Inhibition % total pepsin titer ([4]; id 200 mg/kg): 69.3% | Inhibition % Gastric Acidity ([4]; ip 10 mg/kg): 52.3% | Inhibition % secretion amount of gastric juice ([4]; ip 10 mg/kg): 26.3% | Inhibition % total pepsin titer ([4]; ip 10 mg/kg): 31.4% | Inhibition % Gastric Acidity ([4]; ip 50 mg/kg): 88.0% | Inhibition % secretion amount of gastric juice ([4]; ip 50 mg/kg): 70.9% | Inhibition % total pepsin titer ([4]; ip 50 mg/kg): 60.7%

COc1ccc(C=C(C(=O)Nc2cc(Cl)ccc2C(=O)O)C(=O)Nc2cc(Cl)ccc2C(=O)O)cc1OC [Compound 21]
activity at 1000 µM [5]: 48.3% | IC50 (hyaluronidase [2]): 15 µM | activity at 1000 µM [6]: 73%

O=C(O)c1cc(=O)c2c(OCC(O)COc3cccc4oc(C(=O)O)cc(=O)c34)cccc2o1 [DSCG, disodium cromoglicate, reference compound]
activity at 1000 µM [7]: 76.8% | inhibition in vivo at 100 mg/kg ([8]; read-out: Inhibition, Anti-serum Dilution: × 12): 0% | inhibition in vivo at 100 mg/kg ([8]; read-out: Inhibition, Anti-serum Dilution: × 24): 0% | Extended rate (%) [9]: 23.9% | Average time for falling Mean ± S.E. ([9]; N 5): 192.5 ± 20.3 s | Required time (sec.) for falling and Number of death (#), single animals ([9]; N 5, observed 10 minutes, # shows death): 142 s and 188 s and 199 s and 241 s and > 600 s | activity at 1000 µM [10]: 105% | activity at 1000 µM [5]: 76.8% | activity at 1000 µM ([11]; 10^-3 M): 60% | activity at 100 µM ([11]; 10^-4 M): 52.9% | activity at 1000 µM [12]: 42.2% | effect on hyaluronidase activity (in words) (hyaluronidase [13]): inhibit hyaluronidase activity | activity at 1000 µM [6]: 105% | inhibition in vivo at 100 mg/kg ([14]; read-out: Average Inhibition Rate (%) Antiserum Dilution: × 16): 0.1% | inhibition in vivo at 100 mg/kg ([14]; read-out: Average Inhibition Rate (%) Antiserum Dilution: × 32): 0.3% | anti-PCA activity by peroral administration (in words) ([14]; peroral): no activity
